Reference: patent US5344941A, “Water soluble salts of thionaphthene-2-carboxylic acid” (priority 1992, dated 1994)
Counter-ions that a name gives are not always drawn.

Experiments:
[1] = pH of a 5% aqueous solution of the salt; type: physicochemical
[2] = Acute toxicity (LD50) by oral route and by injection; settings: mouse, in vivo
[3] = tested on: mice; assay: as above; settings: oral vs intraperitoneal
[4] = Solubility in water and organic solvents
[5] = in vivo
[6] = tested on: rats made hypercalcemic by the injection of Leydig-cell carcinoma-tumor material; assay: Reduction of blood calcium levels of rats made hypercalcemic by injection of Leydig-cell carcinoma-tumor material; type: in vivo
Protocol: The following tables (Experiments I and II) illustrate the effectiveness of the present invention in reducing the blood calcium levels of rats made hypercalcemic by the injection of Leydig-cell carcinoma-tumor material. For details of the methodology employed in these studies, see: Johannesson et al., Endocrinology 117/4: 1508-1511 (1985). Normal calcium blood levels are in the range of 9-10 mg/dL.
In the table, n=number of rats evaluated at each dosage and in controls while S.D.=standard deviation. These higher initial values reflect Leydig cell-induced hypercalcemia. Data for final calcium levels show the decreases in calcium levels produced following administration of the lysine salt of TNCA.

[7] = in vivo; remark: listed apart in the source
Source text: The utility of the salts, in a clinical treating sense, is equivalent to TNCA itself but they are far more useful, practically, for the reasons of amelioration of side effects and the high blood levels available via the oral route.

[8] = pK; type: physicochemical
[9] = tested on: mice; settings: cited from earlier work

Compound: O=C(O)c1cc2ccccc2s1 [Example 1, Benzo(b)thiophene-2-carboxylic acid L-Lysine salt]
- pH of a 5% aqueous solution [1]: 5.75
- LD50 [2]: ~1300 mg/kg
- LD50 ([2]; po): ~1500 mg/kg
- LD50 given orally compared to that obtained when administered intraperitoneally [3]: almost equivalent
- Solubility in ethanol (ethyl alcohol) [4]: insoluble
- Solubility in methanol (methyl alcohol) [4]: insoluble
- Solubility in toluene ([4]; toluene): insoluble
- solubility ([4]; water): 700 mg/mL
- Gastric irritation [5]: prevents the adverse effects associated with gastric irritation
- Initial calcium levels (mean) ([6]; Experiment 1, 195 mg/kg group, N=8, initial (before treatment)): 12.28 mg/dL
- Final calcium levels (mean) ([6]; Experiment 1, 195 mg/kg, N=8, control 17.38): 14.85 mg/dL
- Initial calcium levels (mean) ([6]; Experiment 1, 292 mg/kg group, N=9, initial (before treatment)): 13.31 mg/dL
- Final calcium levels (mean) ([6]; Experiment 1, 292 mg/kg, N=9, control 17.38): 11.54 mg/dL
- Initial calcium (mean) ([6]; Experiment 2, 195 mg/kg group, N=6, initial (before treatment)): 14.07 mg/dL
- Final calcium levels (mean) ([6]; Experiment 2, 195 mg/kg, N=6, control 18.03): 13.27 mg/dL
- Initial calcium (mean) ([6]; Experiment 2, 292 mg/kg group, N=6, initial (before treatment)): 14.68 mg/dL
- Final calcium levels (mean) ([6]; Experiment 2, 292 mg/kg, N=6, control 18.03): 11.00 mg/dL
- Initial calcium (mean) ([6]; Experiment 2, 389 mg/kg group, N=10, initial (before treatment)): 13.80 mg/dL
- Final calcium levels (mean) ([6]; Experiment 2, 389 mg/kg, N=8, control 18.03): 10.16 mg/dL
- Decrease in calcium levels, dose relation ([6]; Experiments 1 and 2): clearly does-related in both experiments
- Type of calcium-lowering activity ([6]; Experiments 1 and 2): anti-hypercalcemic, rather than hypocalcemic
- Serum calcium levels following treatment ([6]; relative to pretreatment / normal levels): returned to pretreatment levels, but not to below normal values
- Absorption from the gastrointestinal tract / following oral administration [7]: readily absorbed following oral administration

Compound: O=C(O)c1cc2ccccc2s1 [Example 2]
- pH of a 5% aqueous solution [1]: 6.77
- Water solubility (in words) ([4]; water): water-soluble

Compound: O=C(O)c1cc2ccccc2s1 [Example 3, Ammonium salt of TNCA]
- pH of a 5% aqueous solution [1]: 6.05
- Water solubility (in words) ([4]; water): water-soluble

Compound: O=C(O)c1cc2ccccc2s1 [Example 4, Arginine salt of TNCA]
- pH of a 5% aqueous solution [1]: 5.8
- Solubility in ethanol (ethyl alcohol) [4]: soluble
- Solubility in methanol (methyl alcohol) [4]: soluble
- Water solubility (in words) ([4]; water): water-soluble

Compound: O=C(O)c1cc2ccccc2s1 [Example 5, Piperidine salt of TNCA]
- pH of a 5% aqueous solution [1]: 6.4
- Water solubility (in words) ([4]; water): moderately water-soluble

Compound: O=C(O)c1cc2ccccc2s1 [Example 6, Sodium salt of TNCA]
- Water solubility (in words) ([4]; water): water-insoluble
- Water solubility (in words) ([4]; water, listed as sodium): mainly insoluble in water

Compound: O=C(O)c1cc2ccccc2s1 [Example 7]
- Water solubility (in words) ([4]; water): water-insoluble

Compound: C[C@H](N)C(=O)O [L-alanine]
- Water solubility (in words) ([4]; water): No water-soluble reaction product is formed

Compound: O=C(O)c1cc2ccccc2s1 [TNCA, benzo(b)thiophene-2-carboxylic acid, reference compound]
- Solubility in methanol (methyl alcohol) [4]: soluble in methanol
- Gastric irritation [5]: causes gastric irritation, resulting in vomiting and bleeding
- pKa [8]: 3.4
- LD50 by injection ([9]; by injection, value repeated in text): 1450 mg/kg
- LD50 ([9]; mice, oral, TNCA in gum tragacanth): 3600 mg/kg
- Absorption from the gastrointestinal tract / following oral administration [7]: poorly absorbed from the gastrointestinal tracts

Compound: O=C(O)c1cc2ccccc2s1 [potassium, potassium salt of TNCA]
- Water solubility (in words) ([4]; water): mainly insoluble in water
